# Results from patent publication EP1295874A2, “Retroviral protease inhibiting compounds” (Abbott Laboratories, priority 1995, dated 1997).
# Read-outs that look alike come from different tables or passages of the source.
# What was measured:
# HIV protease = target: T1, HIV protease (Human immunodeficiency virus type 1 group M subtype B, UniProt P04585); assay: Fluorogenic Assay for Screening Inhibitors of HIV Protease; assay type: biochemical; conditions: Inhibitor Concentration 0.5 nanomolar; read-out: Percent Inhibition
# T1 construct: HIV protease consists of two identical subunits, each of which has 99 amino acid residues
# Method: The inhibitory potency of the compound of the invention can be determined by the following method.
# The compound of the invention is dissolved in DMSO and a small aliquot further diluted with DMSO to 100 times the final concentration desired for testing. The reaction is carried out in a 6 X 50 mm tube in a total volume of 300 microliters. The final concentrations of the components in the reaction buffer are: 125 mM sodium acetate, 1 M sodium chloride, 5 mM dithiothreitol, 0.5 mg/ml bovine serum albumin, 1.3 µM fluorogenic substrate, 2% (v/v) dimethylsulfoxide, pH 4.5. After addition of inhibitor, the reaction mixture is placed in the fluorometer cell holder and incubated at 30°C for several minutes. The reaction is initiated by the addition of a small aliquot of cold HIV protease. The fluorescence intensity (excitation 340 nm, emmision 490 nM) is recorded as a function of time. The reaction rate is determined for the first six to eight minutes. The observed rate is directly proportional to the moles of substrate cleaved per unit time. The percent inhibition is 100 X (1 - (rate in presence of inhibitor)/(rate in absence of inhibitor)).
# Fluorogenic substrate: Dabcyl-Gaba-Ser-Gln-Asn-Tyr-Pro-lle-Val-Gln-EDANS wherein DABCYL = 4-(4-dimethylamino-phenyl)azobenzoic acid, Gaba = γ-aminobutyric acid, and EDANS = 5-((2-aminoethyl)amino)-naphthalene-1-sulfonic acid.
# HIVIIIB = assay: Antiviral activity (anti-HIV activity) in MT4 cells, MTT readout; assay type: cell-based; conditions: Human immunodeficiency virus 1, MT4, 120 h, read-out: IC50 (µM, 0% plasma)
# Description: (§1) The anti-HIV activity of the compound of the invention can be determined in MT4 cells according to the following procedure. MT4 cells were infected with cell-free supernatant of HIVIIIB (previously frozen with known 50% tissue culture infectious dose (TCID50) at 0.003 multiplicity of infection (MOI) for one hour. After one hour infection, cells were washed twice to remove residual viruses, resuspended in culture media and seeded into 96-well tissue culture plates at 1x10^4 cells per well with various half-log dilutions of compounds. Uninfected cells are included as toxicity and cell controls. RPMI 1640 media (Gibco ) with 10% fetal bovine serum were used as culture media. Various concentrations of human serum (Sigma) 50%, 25% and 12.5% were added to culture media resulting in final concentration of 60%, 35% and 22.5% total serum. All assay plates were incubated in 37 deg. cent. incubator for 5 days. MTT (sigma, 5 mg/ml stock in PBS) was added to all wells at 25 ul per well, incubate for 4 hours. 20%SDS with 0.02 N HCl in water was added at 50 ul per well to lyse cellls. Plates incubated overnight for complete lyses were read on a microtitre plate reader at 570/650 nm wavelengths to determine cell optical density (O.D.). Raw data were analysed for percent inhibition by the following formula: (O.D. test well - O.D. virus control)/(O.D. cell control -O.D. virus control)x100 [formula] The 50% effective concentration (EC50) was calculated by the median effect equation (Chou, 1975,Proc. Int. Cong. Pharmacol. 6th p. 619) to determine the efficacy of compound. The 50% lethal concentration (LC50) was calculated using uninfected MT4 cells.
# (§2) Under these conditions, the following data were obtained (n = 4 duplicate determinations: Table 2
# [1] = 50% lethal concentration in uninfected MT4 cells (MTT); assay type: cell-based; conditions: human, read-out: LC50
# Description: as §1, §2
# Passaged HIV-1 = assay: Phenotypic susceptibility of in vitro passaged HIV-1 to the compound of Example 2B (MTT colorimetric assay); assay type: cell-based
# [2] = tested on: HIV Selected In Vitro by the Compound of Example 2B; assay: microbe, parasite or virus in culture; assay type: cell-based
# [3] = tested on: Ritonavir-Resistant Mutant HIV Clones; assay: microbe, parasite or virus in culture; assay type: cell-based
# [4] = tested on: Ritonavir-Resistant HIV from Patients; assay: microbe, parasite or virus in culture; assay type: cell-based
structure (smiles),measurement,setting,value
"Cc1cccc(C)c1OCC(=O)N[C@@H](Cc1ccccc1)[C@@H](O)C[C@H](Cc1ccccc1)NC(=O)[C@H](C(C)C)N1CCCNC1=O [Example 2B, (2S, 3S, 5S)-2-(2,6-Dimethylphenoxyacetyl) amino-3-hydroxy-5-[2S-(1-tetrahydro-pyrimid-2-onyl)-3-methylbutanoyl] amino-1,6-diphenylhexane]",inhibition at 0.0005 µM,HIV protease,93.2%
same,IC50,HIVIIIB,0.016 µM
same,CC50 at 120 h,[1],17800 nM
same,EC50,"Passaged HIV-1; Human immunodeficiency virus 1, 384 h, read-out: The compound of Example 2B EC50 (µM), Virus P2 (selected at 0.02 µM, 16 days in culture)",0.025 µM
same,EC50,"Passaged HIV-1; Human immunodeficiency virus 1, NL43, read-out: The compound of Example 2B EC50 (µM), Virus NL4-3",0.028 µM
same,EC50,"Passaged HIV-1; Human immunodeficiency virus 1, read-out: The compound of Example 2B EC50 (µM), Virus P6 (selected at 0.12 µM, 58 days in culture)",0.149 µM
same,EC50,"Passaged HIV-1; Human immunodeficiency virus 1, read-out: The compound of Example 2B EC50 (µM), Virus P7 (selected at 0.15 µM, 65 days in culture)",0.201 µM
same,EC50,"Passaged HIV-1; Human immunodeficiency virus 1, read-out: The compound of Example 2B EC50 (µM), Virus P8 (selected at 0.21 µM, 75 days in culture)",0.295 µM
same,EC50,"Passaged HIV-1; Human immunodeficiency virus 1, read-out: The compound of Example 2B EC50 (µM), Virus P9 (selected at 0.30 µM, 82 days in culture)",0.333 µM
same,EC50,"Passaged HIV-1; Human immunodeficiency virus 1, read-out: The compound of Example 2B EC50 (µM), Virus P10 (selected at 0.30 µM, 93 days in culture)",0.464 µM
same,EC50,"Passaged HIV-1; Human immunodeficiency virus 1, read-out: The compound of Example 2B EC50 (µM), Virus P11 (selected at 0.42 µM, 100 days in culture)",0.346 µM
same,EC50,"Passaged HIV-1; Human immunodeficiency virus 1, read-out: The compound of Example 2B EC50 (µM), Virus P12 (selected at 0.62 µM, 107 days in culture)",0.291 µM
same,EC50,"Passaged HIV-1; Human immunodeficiency virus 1, read-out: The compound of Example 2B EC50 (µM), Virus P13 (selected at 0.80 µM, 114 days in culture)",1 µM
same,EC50,"Passaged HIV-1; Human immunodeficiency virus 1, read-out: The compound of Example 2B EC50 (µM), Virus P14 (selected at 1.10 µM, 121 days in culture)",1.11 µM
same,EC50,"Passaged HIV-1; Human immunodeficiency virus 1, read-out: The compound of Example 2B EC50 (µM), Virus P15 (selected at 1.50 µM, 128 days in culture)",1.34 µM
same,EC50,"Passaged HIV-1; Human immunodeficiency virus 1, read-out: The compound of Example 2B EC50 (µM), Virus P16 (selected at 2.00 µM, 135 days in culture)",1.43 µM
same,EC50,"[2]; Human immunodeficiency virus 1, NL43, Virus NL4-3",28 nM
same,EC50,"[2]; Human immunodeficiency virus 1, Virus P7",116 nM
same,EC50,"[2]; Human immunodeficiency virus 1, Virus P11",349 nM
same,EC50,"[2]; Human immunodeficiency virus 1, Virus P14",1280 nM
same,EC50,"[2]; Human immunodeficiency virus 1, Virus P17",9480 nM
same,EC50,"[3]; Human immunodeficiency virus 1, HXB2, Virus Clone Wild Type (HXB2), 0% Human Serum",12 nM
same,EC50,"[3]; Human immunodeficiency virus 1, HXB2, Virus Clone Wild Type (HXB2), 50% Human Serum",51 nM
same,EC50,"[3]; Human immunodeficiency virus 1, Virus Clone E35D, M36I, I54V, A71V, V82T, 0% Human Serum",83 nM
same,EC50,"[3]; Human immunodeficiency virus 1, Virus Clone E35D, M36I, I54V, A71V, V82T, 50% Human Serum",691 nM
same,EC50,"[3]; Human immunodeficiency virus 1, Virus Clone G48V, 0% Human Serum",8 nM
same,EC50,"[3]; Human immunodeficiency virus 1, Virus Clone G48V, 50% Human Serum",156 nM
same,EC50,"[3]; Human immunodeficiency virus 1, Virus Clone I54V, V82T, 0% Human Serum",213 nM
same,EC50,"[3]; Human immunodeficiency virus 1, Virus Clone I54V, V82T, 50% Human Serum",1150 nM
same,EC50,"[3]; Human immunodeficiency virus 1, Virus Clone I84V, 0% Human Serum",20 nM
same,EC50,"[3]; Human immunodeficiency virus 1, Virus Clone I84V, 50% Human Serum",170 nM
same,EC50,"[3]; Human immunodeficiency virus 1, Virus Clone K20R, E35D, M36I, I54V, A71V, V82T, 0% Human Serum",93 nM
same,EC50,"[3]; Human immunodeficiency virus 1, Virus Clone K20R, E35D, M36I, I54V, A71V, V82T, 50% Human Serum",376 nM
same,EC50,"[3]; Human immunodeficiency virus 1, Virus Clone L90M, 0% Human Serum",16 nM
same,EC50,"[3]; Human immunodeficiency virus 1, Virus Clone L90M, 50% Human Serum",180 nM
same,EC50,"[3]; Human immunodeficiency virus 1, Virus Clone V82A, 0% Human Serum",33 nM
same,EC50,"[3]; Human immunodeficiency virus 1, Virus Clone V82A, 50% Human Serum",268 nM
same,EC50,"[3]; Human immunodeficiency virus 1, Virus Clone V82F, 0% Human Serum",26 nM
same,EC50,"[3]; Human immunodeficiency virus 1, Virus Clone V82F, 50% Human Serum",147 nM
same,EC50,"[3]; Human immunodeficiency virus 1, Virus Clone V82S, 0% Human Serum",26 nM
same,EC50,"[3]; Human immunodeficiency virus 1, Virus Clone V82S, 50% Human Serum",314 nM
same,EC50,"[3]; Human immunodeficiency virus 1, Virus Clone V82T, 50% Human Serum",147 nM
same,EC50,"[3]; Human immunodeficiency virus 1, Virus Clone Wild Type (pNL4-3), 0% Human Serum",22 nM
same,EC50,"[3]; Human immunodeficiency virus 1, Virus Clone Wild Type (pNL4-3), 50% Human Serum",126 nM
same,EC50,"[4]; Human immunodeficiency virus 1, 24 h, Patient No. 313, Day 1, baseline",4 nM
same,EC50,"[4]; Human immunodeficiency virus 1, 24 h, Patient No. 410, Day 1, baseline",6 nM
same,EC50,"[4]; Human immunodeficiency virus 1, 504 h, Patient No. 104, Day 21, V82A",9 nM
same,EC50,"[4]; Human immunodeficiency virus 1, 672 h, Patient No. 104, Day 28, V82T",13 nM
same,EC50,"[4]; Human immunodeficiency virus 1, Patient No. 104, Day -1, baseline",8 nM
same,EC50,"[4]; Human immunodeficiency virus 1, Patient No. 129, Day 84, M36I, I54V, A71V, V82T",33 nM
same,EC50,"[4]; Human immunodeficiency virus 1, Patient No. 129, Day 140, K20K/R, M36M/I, I54V, A71A/V, V82T",29 nM
same,EC50,"[4]; Human immunodeficiency virus 1, Patient No. 129, Day -1, baseline",5 nM
same,EC50,"[4]; Human immunodeficiency virus 1, Patient No. 131, Day 88, M36I, 154V>I, V82A",15 nM
same,EC50,"[4]; Human immunodeficiency virus 1, Patient No. 131, Day 200, K20K/R, M36I, I54I/V, V82A",52 nM
same,EC50,"[4]; Human immunodeficiency virus 1, Patient No. 131, Day -28, baseline",4 nM
same,EC50,"[4]; Human immunodeficiency virus 1, Patient No. 224, Day 110, L33L/F, V82T/S",12 nM
same,EC50,"[4]; Human immunodeficiency virus 1, Patient No. 224, Day 190, K20K/N/R, L33L/F, M36M/I, I54V/M, V82S",52 nM
same,EC50,"[4]; Human immunodeficiency virus 1, Patient No. 224, Day -6, baseline",6 nM
same,EC50,"[4]; Human immunodeficiency virus 1, Patient No. 235, Day 167, I54I/V, A71V, V82A. L90L/M",6 nM
same,EC50,"[4]; Human immunodeficiency virus 1, Patient No. 235, Day -1, baseline",6 nM
same,EC50,"[4]; Human immunodeficiency virus 1, Patient No. 313, Day 57, M36M/I, V82F",11 nM
same,EC50,"[4]; Human immunodeficiency virus 1, Patient No. 313, Day 85, M36M/I, I54I/V, V82S/F/A/T",25 nM
same,EC50,"[4]; Human immunodeficiency virus 1, Patient No. 410, Day 57, M36M/I, I54I/V, V82A",33 nM
same,EC50,"[4]; Human immunodeficiency virus 1, Patient No. 410, Day 85, M36I, I54V, V82A",97 nM
